Structures can show the parent of a compound that is named as a salt. Where two headings read alike, the source gives them in different places. Each block holds one compound with its values, some of them ahead of it.
Columns and labels:
[1] = Rat non-crossover PK study of Example 92; type: in vivo
Experimental: In a rat (SD, male, non-fasted) non-crossover PK study, Example 92 was dosed at 1 mg/kg (DMA: 20% HPBCD=5:95, solution) via i.v. administration (N=2) and 1 mg/kg (0.5% Na CMC+0.5% Tween80, solution) via oral gauge (p.o.) (N=2).

[2] = Rat non-crossover cassette PK study of Example 36; type: in vivo; conditions: rat SD male non-fasted, 2 mg/kg p.o.
Experimental: In a rat (SD, male, non-fasted) non-crossover cassette PK study, Example 36 was dosed at 0.25 mg/kg via i.v. administration (N=3) and 2 mg/kg via oral gauge (p.o.) (N=3) with other 3 compounds.

[3] = test system: Type II Collagen-Induced Arthritis (CIA) in female Lewis rats; experiment: Rat type II collagen-induced arthritis (CIA) model; type: in vivo; conditions: 15 mg/kg PO QD
Experimental: Female Lewis rats were injected intradermally/subcutaneously (ID/SC) with porcine type II collagen to induce arthritis on Study Days 0 & 7. Rats were then dosed once daily (QD) on Study Days 0-24 (developing) or Days 6-24 (semi-established) by the oral (PO) route with Example 92 (15 mg/kg) or vehicle (0.5% Na CMC+0.5% Tween80, suspension). Rats were euthanized for necropsy on Study Day 25. Efficacy evaluation was based daily ankle diameter caliper measurements, terminal hind paw weights, and histopathology of ankles and knees.

[4] = test system: Symmetric Di-Methyl Arginine (sDMA) marks in Granta-519 cell line; experiment: Cellular assay: Western blot of sDMA (SmD3me2s) and H3R8me2s marks in Granta cells, 3 days, IC50; type: cell-based; conditions: Homo sapiens, 72 h, Table 7
PRMT5/MEP50 complex = PRMT5/MEP50 complex (Homo sapiens, UniProt O14744); experiment: Biochemical assay: PRMT5/MEP50 methylation of histone H2A with 3H-SAM, filter plate scintillation
Chain of PRMT5/MEP50 complex (O14744 whole entry, species assumed): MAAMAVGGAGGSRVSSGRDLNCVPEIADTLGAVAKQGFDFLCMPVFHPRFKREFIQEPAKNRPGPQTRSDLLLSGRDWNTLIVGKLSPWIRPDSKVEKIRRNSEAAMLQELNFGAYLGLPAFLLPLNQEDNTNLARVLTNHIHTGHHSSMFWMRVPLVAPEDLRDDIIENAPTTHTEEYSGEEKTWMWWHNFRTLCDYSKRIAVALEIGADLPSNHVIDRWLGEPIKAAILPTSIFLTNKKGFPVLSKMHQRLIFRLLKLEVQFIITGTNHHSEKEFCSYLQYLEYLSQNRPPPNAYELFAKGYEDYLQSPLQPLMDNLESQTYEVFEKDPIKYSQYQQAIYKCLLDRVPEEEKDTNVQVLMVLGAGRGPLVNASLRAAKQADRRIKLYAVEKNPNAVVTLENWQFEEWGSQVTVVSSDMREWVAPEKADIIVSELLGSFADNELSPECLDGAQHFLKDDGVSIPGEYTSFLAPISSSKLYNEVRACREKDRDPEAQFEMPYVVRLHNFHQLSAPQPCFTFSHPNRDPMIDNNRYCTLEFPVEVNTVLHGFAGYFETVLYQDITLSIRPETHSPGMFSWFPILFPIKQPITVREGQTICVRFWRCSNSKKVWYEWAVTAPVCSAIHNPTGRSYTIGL
Chain of PRMT5/MEP50 complex (Q9BQA1 whole entry partner, species assumed): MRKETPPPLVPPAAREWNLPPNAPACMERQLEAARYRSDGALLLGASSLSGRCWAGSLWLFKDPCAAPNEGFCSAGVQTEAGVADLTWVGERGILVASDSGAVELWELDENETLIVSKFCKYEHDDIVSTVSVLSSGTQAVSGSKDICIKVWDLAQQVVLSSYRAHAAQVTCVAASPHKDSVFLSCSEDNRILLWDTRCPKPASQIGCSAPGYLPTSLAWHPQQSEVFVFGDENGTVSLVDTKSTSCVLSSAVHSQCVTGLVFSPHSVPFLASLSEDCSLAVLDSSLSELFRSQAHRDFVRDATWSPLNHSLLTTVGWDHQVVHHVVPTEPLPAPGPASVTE
Experimental: Compounds were solubilized, and 3-fold diluted in 100% DMSO. […] Standard reactions were performed in a total volume of 50 μl in assay buffer, with histone H2A (5 μM final) as substrate. To this was added the PRMT5/MEP50 complex diluted to provide a final assay concentration of 5 nM and the compounds were allowed to preincubate for 15 to 20 minutes at room temperature. The reaction was initiated by adding S-[3H-methyl]-adenosyl-L-methionine (PerkinElmer) to final concentration of 1 μM. Following a 60 minutes incubation at 30° C., the reaction was stopped by adding 100 μL of 20% TCA. Each reaction was spotted onto filter plate (MultiScreen FB Filter Plate, Millipore), and washed 5 times with PBS buffer, Scintillation fluid was added to the filter plate and read in a scintillation counter. IC50 values were determined by fitting the data to the standard 4 parameters with Hill Slope using GraphPad Prism software.

[5] = developing mode (Days 0-24), P<0.001

metabolite in blood samples ([1]; rat, after dosing of Example 92): detected
average of AUC0-int of metabolite ([1]; rat, metabolite after dosing of Example 92): 284 ng·kg·h/mL/mg
Compound: C[C@@](O)(c1ccc(Cl)c(Cl)c1)[C@H]1O[C@@H](n2cnc3c(N)ncnc32)[C@H](O)[C@@H]1O [Example 1-C, (2R,3R,4S,5S)-2-(6-amino-9H-purin-9-yl)-5-((R)-1-(3,4-dichlorophenyl)-1-hydroxyethyl)tetrahydrofuran-3,4-diol]

average dose normalized AUC [2]: 1738 ng·kg·h/mL/mg
Compound: CO/N=c1/nc[nH]c2c1ccn2[C@@H]1O[C@H]([C@H](O)c2ccc(Cl)cc2)[C@@H](O)[C@H]1O [Example 36, (2R,3S,4R,5R)-2-[(R)-(4-chlorophenyl)-hydroxy-methyl]-5-(-4-methoxyimino-1H-pyrrolo[2,3-d]pyrimidin-7-yl]tetrahydrofuran-3,4-diol]

average dose normalized AUC0-inf ([1]; rat SD male non-fasted, 1 mg/kg p.o.): 2184 ng·kg·h/mL/mg
Compound: CO/N=c1\[nH]cnc2c1ncn2[C@@H]1O[C@H]([C@](C)(O)c2ccc(Cl)c(Cl)c2)[C@@H](O)[C@H]1O [Example 92, (2S,3S,4R,5R)-2-[(1R)-1-(3,4-dichlorophenyl)-1-hydroxy-ethyl]-5-[(6Z)-6-methoxyimino-1H-purin-9-yl]tetrahydrofuran-3,4-diol]
histopathology parameters in ankles and knees ([3]; both modes, versus vehicle controls): significantly inhibited all histopathology parameters
reduction in ankle diameter [3, 5]: 63%
reduction in hind paw weight [3, 5]: 67%
reduction in hind paw weight ([3]; semi-established mode (Days 6-24), P<0.01): 51%
reduction in ankle diameter ([3]; semi-established mode (Days 6-24), P<0.05): 34%

Compound: CO/N=c1\nc[nH]c2c1ccn2[C@@H]1O[C@H]([C@H](O)c2ccc(Cl)c(Cl)c2)[C@@H](O)[C@H]1O [Example 69, 7-((2R,3R,4S,5R)-5-((R)-(3,4-dichlorophenyl)(hydroxy)methyl)-3,4-dihydroxytetrahydrofuran-2-yl)-1,7-dihydro-4H-pyrrolo[2,3-d]pyrimidin-4-one O-methyl oxime hydrochloride]
IC50 [4]: 28 nM

IC50 (PRMT5/MEP50 complex; Table 7, histone H2A substrate, 5 nM enzyme, read-out: PRMT5/MEP50 IC50): 29.1 nM
IC50 [4]: 97 nM
Compound: CCO/N=c1\nc[nH]c2c1ccn2[C@@H]1OC([C@](C)(O)c2ccc(Cl)cc2)[C@@H](O)[C@H]1O (stereo partly drawn) [Example 83, 7-((2R,3R,4S)-5-((R)-1-(4-chlorophenyl)-1-hydroxyethyl)-3,4-dihydroxytetrahydrofuran-2-yl)-1,7-dihydro-4H-pyrrolo[2,3-d]pyrimidin-4-one O-ethyl oxime]

IC50 (PRMT5/MEP50 complex; Table 9, compounds of Formula V and Formula VI, read-out: PRTMT5/MEP50 IC50): 37 nM
Compound: C[C@@H](c1ccc(Cl)cc1)[C@H]1O[C@@H](n2ccc3c(N)ncnc32)[C@H](O)[C@@H]1O [Example 5-C, (2R,3R,4S,5R)-2-(4-amino-7H-pyrrolo[2,3-d]pyrimidin-7-yl)-5-((S)-1-(4-chlorophenyl)ethyl)tetrahydrofuran-3,4-diol hydrochloride]

Reference: US20220218732A1, “Selective Inhibitors Of Protein Arginine Methyltransferase 5 (PRMT5)” (Prelude Therapeutics, Incorporated, priority 2019, published 2022)
